In BindingDB's records for doi:10.1021/bi3009278 (University of Wisconsin, 2012):

Biological target: Lysine-specific demethylase 5A (Homo sapiens, UniProt P29375)
Test: Fluorescence Polarization Binding Assay

Chain of Lysine-specific demethylase 5A (P29375 whole entry): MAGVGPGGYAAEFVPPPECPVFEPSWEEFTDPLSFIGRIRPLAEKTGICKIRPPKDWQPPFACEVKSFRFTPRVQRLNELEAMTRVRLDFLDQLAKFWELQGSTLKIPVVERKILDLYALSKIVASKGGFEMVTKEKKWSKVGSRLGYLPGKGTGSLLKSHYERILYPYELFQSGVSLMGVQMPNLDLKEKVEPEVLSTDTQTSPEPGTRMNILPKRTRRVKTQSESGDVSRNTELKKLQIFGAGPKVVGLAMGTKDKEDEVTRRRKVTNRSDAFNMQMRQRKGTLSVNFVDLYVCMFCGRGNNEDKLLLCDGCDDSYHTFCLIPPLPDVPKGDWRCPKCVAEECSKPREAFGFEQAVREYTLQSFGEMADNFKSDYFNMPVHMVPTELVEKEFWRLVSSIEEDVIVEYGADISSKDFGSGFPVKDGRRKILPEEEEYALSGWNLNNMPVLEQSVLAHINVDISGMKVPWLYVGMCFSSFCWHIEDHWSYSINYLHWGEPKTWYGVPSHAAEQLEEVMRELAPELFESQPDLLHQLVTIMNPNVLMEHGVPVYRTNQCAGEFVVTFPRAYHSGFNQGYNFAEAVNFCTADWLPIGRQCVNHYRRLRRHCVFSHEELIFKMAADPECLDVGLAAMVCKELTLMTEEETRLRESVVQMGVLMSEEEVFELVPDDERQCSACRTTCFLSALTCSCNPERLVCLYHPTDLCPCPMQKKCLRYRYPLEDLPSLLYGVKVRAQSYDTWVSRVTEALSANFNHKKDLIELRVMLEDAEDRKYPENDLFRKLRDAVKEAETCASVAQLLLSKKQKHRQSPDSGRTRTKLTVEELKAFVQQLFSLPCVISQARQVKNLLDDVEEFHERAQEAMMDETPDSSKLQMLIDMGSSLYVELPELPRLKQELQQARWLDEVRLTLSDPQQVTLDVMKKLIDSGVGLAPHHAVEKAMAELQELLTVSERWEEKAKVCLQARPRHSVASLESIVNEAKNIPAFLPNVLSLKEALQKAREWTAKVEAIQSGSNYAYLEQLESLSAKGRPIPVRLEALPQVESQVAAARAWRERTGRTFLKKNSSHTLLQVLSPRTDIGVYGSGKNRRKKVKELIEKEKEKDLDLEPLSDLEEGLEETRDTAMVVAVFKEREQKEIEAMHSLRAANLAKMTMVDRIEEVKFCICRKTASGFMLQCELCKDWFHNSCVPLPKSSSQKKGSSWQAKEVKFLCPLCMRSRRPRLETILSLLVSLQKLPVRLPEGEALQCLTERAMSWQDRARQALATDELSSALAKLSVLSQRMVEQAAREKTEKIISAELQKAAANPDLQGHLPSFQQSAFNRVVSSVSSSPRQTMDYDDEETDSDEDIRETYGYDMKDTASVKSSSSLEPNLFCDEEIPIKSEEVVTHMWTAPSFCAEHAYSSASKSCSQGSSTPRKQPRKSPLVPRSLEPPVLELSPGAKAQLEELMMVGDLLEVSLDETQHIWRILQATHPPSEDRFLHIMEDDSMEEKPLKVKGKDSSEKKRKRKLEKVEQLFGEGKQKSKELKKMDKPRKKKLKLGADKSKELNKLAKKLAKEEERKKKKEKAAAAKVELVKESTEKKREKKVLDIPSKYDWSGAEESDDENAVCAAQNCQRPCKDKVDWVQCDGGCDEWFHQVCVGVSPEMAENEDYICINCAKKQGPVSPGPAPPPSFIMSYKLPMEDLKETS

| SMILES | IC50 |
| --- | --- |
| CCCCc1oc2ccccc2c1C(=O)c1cc(I)c(OCCN)c(I)c1 [Di-N-desethylaminodarone] | 26 µM |
| CCCCc1oc2ccccc2c1C(=O)c1cc(I)c(OCC[N+](C)(C)C)c(I)c1 [WAG-003] | 30 µM |
